One experiment relates to CD4+Foxp3+ T cells. The experiment in a line: mouse DC / CD4+ T cell co-culture, Foxp3+ Treg induction. Format: cell-based, mice. Particulars: FIG. 6B. On the procedure:
In a particular example of the method of paragraph, mouse dendritic cells (DCs) are treated with PSA or PSA and vitamin D metabolite for 16-18 hrs, washed and co-cultured with naïve CD4+ T cells. After 4 days, cells were collected and stained for Foxp3. Percentage of Foxp3+ CD4+ T cells were determined by flow cytometry.
(§1) (A) Mouse DCs were stimulated with PSA (or PBS control), and Cyp27b1 transcript levels were measured by qRT-PCR. PSA induces the expression of the vitamin D-activating enzyme from WT, but not TLR2−/− DCs. (B) Mouse DCs were treated with PSA, washed and co-cultured with naïve CD4+ T cells. After 4 days, PSA increased Foxp3+ Treg proportions (see % in box). The vitamin D metabolite 25D augmented PSA-induced Tregs. (C) Human monocytes were treated with PSA or vehicle, washed and co-cultured with CD4+ T cells from PBMCs of the same donor. The MFI for Foxp3 among CD4+CD25+ T cells is shown with or without TGFβ. Collectively, we propose a model whereby PSA signals through TLR2 on DCs to induce expression of Cyp27b1, which converts 25D to 1,25D. The vitamin D receptor (VDR) in T cells responds to 1,25 D, and along with other PSA-specific signals, mediated the development of Treg cells (see diagram in FIG. 1).
(§2) Vitamin D enhances PSA-mediated induction of mouse and human Tregs. […]

Experiment [1] relates to Foxp3 expression in human Tregs. In words: human monocyte / CD4+ T cell co-culture, Foxp3 MFI. The class given is cell-based. The settings on record: FIG. 6C. On the procedure: In a particular example of the method of paragraph, in vitro, human monocytes are treated with PSA or vehicle for 16-18 hrs, washed and co-cultured with CD4+ T cells from PBMCs of the same donor with or without TGFb. After 2 days, cells were collected and stained for Foxp3. MFI of Foxp3 among CD4+CD25+ T cells was determined by flow cytometry.
as §1, §2

The test system of the next experiment is TNBS colitis. In words: TNBS experimental colitis in mice treated with PSA. Format: in vivo. The settings on record: for IL-10 expression in MLNs (qRT-PCR) / IL-17 levels in MLNs (qRT-PCR): FIG. 3C. As for the experimental part:
(§3) (A) Mice were treated with PSA or PBS. Analysis of the percentage of Foxp3+ cells within the CD4+CD25+ population in the MLNs is shown, indicated by the numbers in the top right quadrant. (B) CD4+CD25+ cells were purified from the MLNs of colitic PBS or PSA-treated mice and incubated with CFSE-pulsed CD4+CD25-responder cells in an in vitro suppression assay. Numbers indicate the percentage of cells undergoing at least one cellular division at 2 different ratios of effector T cells (Teff) and regulatory T cells (Treg). Top panels show results from healthy mice (−TNBS). (C) Disease scores for mice pre- and post-treated with PSA during TNBS colitis were assessed by a blinded pathologist. P values determined by a two-tailed Mann-Whitney U-test. **p value of <0.01. (D) Colons from mice were fixed, sectioned and stained with H&E to determine disease severity. Representative sections are shown.
(A) C57B1/6 WT or TLR2−/− animals were gavaged with purified PSA (or PBS) prior to TNBS administration. 5-6 days after onset of TNBS colitis, colons of animals were fixed, sectioned and H&E stained. Representative histological sections are shown. […] Each symbol represents a separate animal. *p value of <0.05. NS, not significant. (C) RNA was extracted from the MLNs of indicated mice either treated with PBS or PSA, and the expression levels of IL-10 and IL-17A were assayed by qRT-PCR. (D) Percentages of CD4+CD25+Foxp3+ T cells in the MLNs of TLR2−/−mice treated with PBS or PSA. Plots are gated on CD4+ T cells. Note: PSA increases CD4+CD25+Foxp3+ Treg proportions in WT mice by ˜25%.
B. fragilis induces Tregs that prevent and cure experimental IBD. Maintenance of homeostasis toward the intestinal microbial milieu is critical to the preservation of health, and defects in mucosal tolerance lead to disorders such as IBD. In animal models of IBD, intestinal inflammation is suppressed by various subsets of regulatory T cells (Tregs). Tregs emerge from the thymus and are marked by expression of CD4, CD25 and the transcription factor Foxp3 (Forkhead Box transcription factor for Treg differentiation). We have recently reported that the prominent human commensal, B. fragilis, directs the development of Foxp3+ Tregs in the gut during protection from experimental colitis in animal models. […] The Mazmanian laboratory employs 2 models of experimental colitis: 1) the T cell transfer model whereby various T cell subsets are transferred into RAG−/− animals allowing for the functional study of both pro- and anti-inflammatory T cells; 2) the TNBS (2,4,6-trinitrobenzene sulfonic acid) model, where rectal treatment of animals with an immunogenic chemical results in gut inflammation.
(§4) Here, we present data from the TNBS model, representative of results similar to the T cell transfer model. […] During protection from colitis (TNBS+PSA), PSA increases in-the percentage of Foxp3+ cells within the CD4+CD25+ compartment of the MLNs. […] The suppressive capacity of Tregs during PSA-mediated protection from intestinal inflammation was determined by in vitro suppression assays.
To examine if PSA can prevent and cure established colitis, animals were induced for TNBS colitis, and groups were either treated with vehicle (TNBS+PBS) or PSA either: 1) prior to disease induction (pre-TNBS+PSA) or 2) following rectal TNBS administration (post-TNBS+PSA).
PSA protection from experimental IBD requires TLR2 signaling. Multiple studies have implicated TLR signaling by innate immune cells during inflammatory disease. […] Wild-type (WT) or TLR2−/− animals were orally treated with PSA or PBS prior to induction of TNBS colitis. […] In contrast, TLR2−/− mice treated with PSA had marked inflammation including thickening of the mucosa, infiltrating leukocytes and crypt loss (FIG. 3A). […] As previously reported, WT animals were protected from colitis by PSA.

Experiment [2] relates to proliferation of CD4+CD25- responder T cells. The experiment in a line: in vitro suppression assay with CD4+CD25+ Tregs from MLNs of treated mice. The class given is cell-based. The settings on record: Tregs from PSA fed mice (TNBS+PSA) vs untreated animals, FIG. 2B. As for the experimental part: as §3, §4
For a further experiment, the system named is Cyp27b1. The experiment in a line: qRT-PCR of Cyp27b1 in bone marrow-derived dendritic cells treated with PSA. Format: cell-based, mice. Particulars: FIG. 6A. On the procedure:
as §1
Vitamin D enhances PSA-mediated induction of mouse and human Tregs. As outlined above, the ability of PSA to protect against IBD in mice involves the gut-specific conversion of CD4+ cell into IL-10-secreting Foxp3+ Tregs. We hypothesize that vitamin D may play a pivotal role in this process, given our novel finding that PSA induces the vitamin D-activating machinery in mice (see FIG. 5C). […]
In general terms: In qPCR the cycle at which signal appears reflects the starting amount.

Where [3] appears, read: PSA following the onset of disease, data not shown.

With “25-hydroxyvitamin D [25D, reference compound]”, the “effect on PSA-induced increase of CD4+Foxp3+ T cells” value in the experiment with CD4+Foxp3+ T cells (co-treatment of WT BMDCs with PSA and 25D) is “further enhanced”.

Consider TGFβ [reference compound], for which the “effect on PSA-induced Tregs” value in experiment [1] (co-culture with or without TGFβ) was “does not further enhance”.

In the case of polysaccharide A [PSA], the colitis disease score entry in the experiment with TNBS colitis (PSA following rectal TNBS administration (post-TNBS+PSA)) and in the experiment with TNBS colitis (PSA prior to disease induction (pre-TNBS+PSA)) was “prevented the development of disease with equal efficacy” in each case. Further, the “Foxp3 expression by gut CD4+ T cells” value with TNBS colitis (setting [3]) was “increased”. Further, the “IL-10 expression by gut CD4+ T cells” value in the experiment with TNBS colitis (setting [3]) is on record as “increased”. Besides, the “absolute number of CD4+CD25+Foxp3+ cells in the MLNs” value with TNBS colitis (PSA-treated vs PBS or non-colitic animals, data not shown) is on record as “significantly higher”. Moreover, the “IL-10 expression in MLNs (qRT-PCR)” value is on record as “no longer up-regulated” in the experiment on TNBS colitis (TLR2-/- animals) and “induced” in the experiment on TNBS colitis (WT animals). Besides, the “protection from colitis (colitis score)” value in the experiment with TNBS colitis (TLR2-/- animals, oral PSA prior to TNBS vs PBS, FIG. 3B) is “not protected”. Further, in the experiment with TNBS colitis (TLR2-/- animals, relative to PBS controls, FIG. 3D), the “percentage of CD4+Foxp3+ Tregs” value is given as “no differences”. For the same substance, the “IL-17 levels in MLNs (qRT-PCR)” value in the experiment on TNBS colitis (TLR2-/- mice, PSA compared to PBS) was “increased”; in the experiment with TNBS colitis (WT animals), “Suppression”. The “percentage of Foxp3+ cells within the CD4+CD25+ compartment of the MLNs” value in the experiment with TNBS colitis (TNBS+PSA vs TNBS+PBS, FIG. 2A) was “increases”. Moreover, in the experiment on TNBS colitis (WT animals, oral PSA prior to TNBS, FIG. 3A/B), the “protection from colitis (histopathology, colitis score)” value is listed as “protected from disease”. The “increase of CD4+CD25+Foxp3+ Treg proportions” value with TNBS colitis (WT mice, MLNs, FIG. 3 note) is on record as around 25%. The “pro-inflammatory Th17 cells” value with TNBS colitis (during both protection and cure of colitis, data not shown) is on record as “significant decrease”. Besides, the “suppression of T cell proliferation by Tregs from MLNs” value in experiment [2] is reported as “suppressed T cell proliferation to a significantly higher level”. In addition, the “induction of Cyp27b1 expression” value was “greatly diminished” with Cyp27b1 (DCs from TLR2-/- mice) and 5 fold in the experiment with Cyp27b1 (WT BMDC, PSA vs PBS control). Besides, in the experiment with CD4+Foxp3+ T cells (WT BMDCs treated with PSA, over media controls), the “proportions of CD4+Foxp3+ T cells in culture” value was “increases”. In addition, the “Foxp3 expression in human Tregs (MFI among CD4+CD25+ T cells)” value in experiment [1] (human monocytes treated with purified PSA or vehicle) is “promotes Foxp3 expression”.
